According to article PMC8659057, “Chemical Constituents from the Wild Atractylodes macrocephala Koidz and Acetylcholinesterase Inhibitory Activity Evaluation as Well as Molecular Docking Study” (Molecules, 2021):
pIC50: −log10 of the molar value. Like-named read-outs stand apart in the source and are kept apart here.

Molecular target: acetylcholinesterase (AChE, Type VI-S, from electric eel) (Electrophorus electricus, UniProt O42275)
Experiment: modified Ellman colorimetric AChE inhibition assay
Type: biochemical

Chain of acetylcholinesterase (AChE, Type VI-S, from electric eel) (O42275 24-633): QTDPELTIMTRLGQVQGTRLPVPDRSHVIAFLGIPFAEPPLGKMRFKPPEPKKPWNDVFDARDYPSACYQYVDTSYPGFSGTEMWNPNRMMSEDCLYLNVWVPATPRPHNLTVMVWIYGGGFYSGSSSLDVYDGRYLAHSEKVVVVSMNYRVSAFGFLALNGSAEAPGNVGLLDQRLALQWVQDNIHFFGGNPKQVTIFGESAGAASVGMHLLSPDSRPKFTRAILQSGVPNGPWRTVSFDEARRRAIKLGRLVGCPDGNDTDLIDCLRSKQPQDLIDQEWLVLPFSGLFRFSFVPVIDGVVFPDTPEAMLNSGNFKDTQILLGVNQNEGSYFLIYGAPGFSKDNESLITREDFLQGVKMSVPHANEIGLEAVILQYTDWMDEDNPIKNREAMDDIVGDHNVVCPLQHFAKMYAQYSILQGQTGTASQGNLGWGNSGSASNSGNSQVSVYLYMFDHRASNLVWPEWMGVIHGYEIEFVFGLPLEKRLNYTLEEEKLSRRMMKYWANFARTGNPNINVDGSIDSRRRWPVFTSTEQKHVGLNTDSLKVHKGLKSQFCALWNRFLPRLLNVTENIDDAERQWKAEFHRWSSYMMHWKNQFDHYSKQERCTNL

Structure (SMILES) | pIC50 | IC50 (read-out: IC50 (converted))
C=C1C(OC(C)=O)CCC2(C)CC3(C45CC6(C)CCC(OC(C)=O)C(=C)C6CC4=C(C)C(=O)O5)OC(=O)C(C)=C3CC12 (centres unmarked) [compound 5, biatractylenolide II] | 4.47 | –
C=C1CCC[C@]2(C)C[C@]3(O)OC(=O)C(C)=C3C[C@@H]12 [compound 1, atractylenolide III] | – | 247 µM
